From patent US20090155784A1, “ASSESSMENT OF ASTHMA AND ALLERGEN-DEPENDENT GENE EXPRESSION” (Wyeth, priority 2007, published 2009)

Key:
human whole blood = human whole blood assay verifying inhibitory activity of the inhibitor samples; type: cell-based
[1] = tested on: PBMCs from healthy volunteers; assay: HG-U133A transcriptional profiling of allergen-stimulated PBMCs of healthy volunteers (HV/WHV), with and without cPLA2 inhibitor, 6 days culture; type: cell-based, human
Description: (§1) PBMCs were stimulated in vitro with a cocktail containing 4 different allergens from house dust mite, ragweed and cat. Recombinant allergens, Der p1, Der f2, Fel d1 (Indoor Biotech, Charlottesville, Va.) and natural ragweed allergen (Allergy Lab, Seattle, Wash.) were selected and screened for endotoxin contamination (LAL Endotoxin Test, Catalog #HIT302, sensitivity, 0.0001 Eu/ml, Cell Sciences, Canton, Mass.). The sensitivity of the subjects was unknown but the allergens were chosen based on the estimate that 80% of allergic individuals are believed to react to one or more of these allergens. Culture medium contained RPMI-1640 (Sigma) with 10% heat inactivated FCS (Sigma St. Louis, Mo.) and 100 unit/mL Penicillin and […] Streptomycin and 0.292 mg/mL Glutamine (GIBCO RL Invitrogen, Carlsbad, Calif.). The final allergen cocktail concentrations in culture medium were: Der p1 and Der f2 (dust mite), 1 mg/ml; Fel d1 (cat), 1.25 mg/ml; ragweed, 125 mg/ml. The total level of endotoxin contamination in culture medium was 0.057 Eu/ml. The cPLA2 inhibitor 4-{3-[1-benzhydryl-5-chloro-2-(2-{[(2,6-dimethylbenzyl)sulfonyl]amino}ethyl)-1H-indol-3-yl]propyl}benzoic acid was used at a concentration of 0.3 μM/ml. Zileuton, a 5-lipoxygenase inhibitor, was added at a concentration of 5 μM. The inhibitory activity of both the cPLA2 inhibitor and Zileuton samples were verified in a human whole blood assay. After 6 days in culture approximately 200 μL of supernatant was removed using an 8-channel pipettor without disturbing the cell pellet and placed into a collection plate for cytokine ELISA assays. To the remaining cell pellet 100 μL of RLT lysis buffer containing 1% beta-mercaptoethanol was added and snap frozen for RNA purification.
(§2) RNA was purified using QIA shredders and Rneasy mini kits (Qiagen, Valencia, Calif.). PBMC pellets frozen in RLT lysis buffer containing 1% β-mercaptoethanol were thawed and processed for total RNA isolation using the QIA shredder and RNeasy mini kit. A phenol:chloroform extraction was then performed, and the RNA was repurified using the RNeasy mini kit reagents. Eluted RNA was quantified using a Spectramax96 well plate UV reader (Molecular Devices, Sunnyvale, Calif., USA) monitoring A260/280 OD values. The quality of each RNA sample was assessed by capillary electrophoresis alongside an RNA molecular weight ladder on the Agilent 2100 bioanalyzer (Agilent Technologies, Palo Alto, Calif., USA). RNA samples were assigned quality values of intact (distinct 18S and 28S bands); partially degraded (discernible 18S and 28S bands with presence of low molecular weight bands) or completely degraded (no discernible 18S and 28S bands).
(§3) Labeled targets for oligonucleotide arrays were prepared using a modification of the procedure described by Lockhart et al. (Lockhart (1996) Nat. Biotechnol. 14:1675-80). Labeled targets were hybridized to the HG-U133A Affymetrix GeneChip Array as described in the Affymetrix technical manual. Eleven biotinylated control transcripts ranging in abundance from 3 parts per million (ppm) to 100 ppm were spiked into each sample to function as a standard curve (Hill (2001) Genome Biol. 2:RESEARCH0055). GeneChip MAS 5.0 software was used to evaluate the hybridization intensity, compute the signal value for each probe set and make an absent/present call.
(§4) GeneChips were required to pass the pre-set quality control criteria that the RNA quality metric required a 5′:3′ ratio. Two asthma subjects were excluded from the study due to failure to meet the RNA quality metric and 2 GeneChips from the group treated with cPLA2a inhibitor were excluded for the same reason. The signal value for each probe set was converted into a frequency value representative of the number of transcripts present in 10^6 transcripts by reference to the standard curve (Hill (2001) Genome Biol. 2:RESEARCH0055). […]

[2] = tested on: PBMCs from asthma subjects; assay: HG-U133A transcriptional profiling of allergen-stimulated PBMCs of asthma subjects (AOS), with and without cPLA2 inhibitor, 6 days culture; clustering and Ingenuity pathway analysis; type: cell-based, human
Description: as §1, §2, §3, §4

[3] = gene C10ORF3, probeset 218542_at
[4] = gene CHIT1, probeset 208168_s_at
[5] = gene DAB2, probeset 201279_s_at
[6] = gene DAB2, probeset 210757_x_at
[7] = gene DUSP4, probeset 204015_s_at
[8] = gene FABP3, probeset 205738_s_at
[9] = gene FLJ23311, probeset 219990_at
[10] = gene HS3ST2, probeset 219697_at
[11] = gene PAPSS2, probeset 203060_s_at
[12] = gene PLEKHB2, probeset 201411_s_at
[13] = gene RACGAP1, probeset 222077_s_at
[14] = gene RUVBL1, probeset 201614_s_at
[15] = gene SLC36A1, probeset 213119_at
[16] = gene SLC38A6, probeset 214830_at
[17] = gene SLC39A14, probeset 212110_at
[18] = gene SLCO2B1, probeset 203472_s_at
[19] = gene SLCO2B1, probeset 203473_at
[20] = gene SMC2L1, probeset 204240_s_at
[21] = gene TRIP13, probeset 204033_at
[22] = gene UNK_AI859865, probeset 222036_s_at
[23] = gene UNK_BE966236, probeset 201890_at

## Cc1cccc(C)c1CS(=O)(=O)NCCc1c(CCCc2ccc(C(=O)O)cc2)c2cc(Cl)ccc2n1C(c1ccccc1)c1ccccc1 [cPLA2 inhibitor, 4-{3-[1-benzhydryl-5-chloro-2-(2-{[(2,6-dimethylbenzyl)sulfonyl]amino}ethyl)-1H-indol-3-yl]propyl}benzoic acid]
Human whole blood
  inhibitory activity in a human whole blood assay: verified
[1]; allergen + inhibitor, data not shown
  genes down regulated in response to allergen in Network 1 in the healthy population: brought up to non-allergen-stimulated background levels
[1]; [3]
  Fold Change WHV Allergen vs. cPLA2 inhibitor: −1.335
[1]; gene CDC2, probeset 203213_at
  Fold Change WHV Allergen vs. cPLA2 inhibitor: −1.258
[1]; [4]
  Fold Change WHV Allergen vs. cPLA2 inhibitor: 2.013
[1]; [5]
  Fold Change WHV Allergen vs. cPLA2 inhibitor: 1.413
[1]; [6]
  Fold Change WHV Allergen vs. cPLA2 inhibitor: 1.326
[1]; gene DUSP4, probeset 204014_at
  Fold Change WHV Allergen vs. cPLA2 inhibitor: −1.388
[1]; [7]
  Fold Change WHV Allergen vs. cPLA2 inhibitor: −1.157
[1]; [8]
  Fold Change WHV Allergen vs. cPLA2 inhibitor: −1.037
[1]; [9]
  Fold Change WHV Allergen vs. cPLA2 inhibitor: 1.042
[1]; gene GM2A, probeset 33646_g_at
  Fold Change WHV Allergen vs. cPLA2 inhibitor: 1.344
[1]; gene GM2A, probeset 209727_at
  Fold Change WHV Allergen vs. cPLA2 inhibitor: 1.211
[1]; [10]
  Fold Change WHV Allergen vs. cPLA2 inhibitor: 1.288
[1]; gene ME1, probeset 204059_s_at
  Fold Change WHV Allergen vs. cPLA2 inhibitor: 1.518
[1]; gene MELK, probeset 204825_at
  Fold Change WHV Allergen vs. cPLA2 inhibitor: −1.213
[1]; gene OIP5, probeset 213599_at
  Fold Change WHV Allergen vs. cPLA2 inhibitor: −1.067
[1]; [11]
  Fold Change WHV Allergen vs. cPLA2 inhibitor: 1.13
[1]; [12]
  Fold Change WHV Allergen vs. cPLA2 inhibitor: 1.277
[1]; gene POLG, probeset 213007_at
  Fold Change WHV Allergen vs. cPLA2 inhibitor: −1.337
[1]; [13]
  Fold Change WHV Allergen vs. cPLA2 inhibitor: −1.108
[1]; [14]
  Fold Change WHV Allergen vs. cPLA2 inhibitor: −1.144
[1]; [15]
  Fold Change WHV Allergen vs. cPLA2 inhibitor: 1.279
[1]; [16]
  Fold Change WHV Allergen vs. cPLA2 inhibitor: 1.206
[1]; [17]
  Fold Change WHV Allergen vs. cPLA2 inhibitor: −1.568
[1]; [18]
  Fold Change WHV Allergen vs. cPLA2 inhibitor: 1.211
[1]; [19]
  Fold Change WHV Allergen vs. cPLA2 inhibitor: 1.237
[1]; [20]
  Fold Change WHV Allergen vs. cPLA2 inhibitor: −1.27
[1]; gene SN, probeset 219519_s_at
  Fold Change WHV Allergen vs. cPLA2 inhibitor: 1.618
[1]; [21]
  Fold Change WHV Allergen vs. cPLA2 inhibitor: −1.317
[1]; [22]
  Fold Change WHV Allergen vs. cPLA2 inhibitor: −1.29
[1]; [23]
  Fold Change WHV Allergen vs. cPLA2 inhibitor: −1.202
[2]; allergen + inhibitor
  all T cell responsive and cell cycle genes in the pathway (Network 1, FIG. 3A/3C): significantly changed towards the levels in the healthy subject group
  allergen-induced increase in expression of T cell genes ZAP70, CD28, CD3D: abolished
  genes initially down regulated in asthma samples in the presence of allergen, such as sialoadhesin (SN), CD84, TIMP3: up-regulated in the presence of inhibition
  genes up-regulated in asthma samples in response to allergen, such as ZAP70, LCK, MCM2: reduced to the levels seen in the allergen treated healthy controls
  other immune related genes: CD28, CD3D, IL-21R, HMGB1: downregulated
[2]; allergen + inhibitor, FIG. 3C
  every single probe in Network 1 in the asthmatic population: altered level of expression
[2]; compared to the allergen treatment alone, 0.3 μM/ml
  asthma specific gene expression (167 allergen-asthma specific probesets) in the presence of the inhibitor: altered
[2]; [3]
  Fold Change AOS Allergen vs. cPLA2 inhibitor: −1.255
[2]; gene CDC2, probeset 203213_at
  Fold Change AOS Allergen vs. cPLA2 inhibitor: −1.163
[2]; [4]
  Fold Change AOS Allergen vs. cPLA2 inhibitor: 2.803
[2]; [5]
  Fold Change AOS Allergen vs. cPLA2 inhibitor: 2.442
[2]; [6]
  Fold Change AOS Allergen vs. cPLA2 inhibitor: 2.524
[2]; gene DUSP4, probeset 204014_at
  Fold Change AOS Allergen vs. cPLA2 inhibitor: −1.393
[2]; [7]
  Fold Change AOS Allergen vs. cPLA2 inhibitor: −1.344
[2]; [8]
  Fold Change AOS Allergen vs. cPLA2 inhibitor: 2.574
[2]; [9]
  Fold Change AOS Allergen vs. cPLA2 inhibitor: −1.362
[2]; gene GM2A, probeset 33646_g_at
  Fold Change AOS Allergen vs. cPLA2 inhibitor: 2.499
[2]; gene GM2A, probeset 209727_at
  Fold Change AOS Allergen vs. cPLA2 inhibitor: 2.415
[2]; [10]
  Fold Change AOS Allergen vs. cPLA2 inhibitor: 4.363
[2]; gene ME1, probeset 204059_s_at
  Fold Change AOS Allergen vs. cPLA2 inhibitor: 2.986
[2]; gene MELK, probeset 204825_at
  Fold Change AOS Allergen vs. cPLA2 inhibitor: −1.228
[2]; gene OIP5, probeset 213599_at
  Fold Change AOS Allergen vs. cPLA2 inhibitor: −1.141
[2]; [11]
  Fold Change AOS Allergen vs. cPLA2 inhibitor: 2.162
[2]; [12]
  Fold Change AOS Allergen vs. cPLA2 inhibitor: 2.51
[2]; gene POLG, probeset 213007_at
  Fold Change AOS Allergen vs. cPLA2 inhibitor: −1.163
[2]; [13]
  Fold Change AOS Allergen vs. cPLA2 inhibitor: −1.167
[2]; [14]
  Fold Change AOS Allergen vs. cPLA2 inhibitor: −1.215
[2]; [15]
  Fold Change AOS Allergen vs. cPLA2 inhibitor: 2.385
[2]; [16]
  Fold Change AOS Allergen vs. cPLA2 inhibitor: 2.908
[2]; [17]
  Fold Change AOS Allergen vs. cPLA2 inhibitor: −1.323
[2]; [18]
  Fold Change AOS Allergen vs. cPLA2 inhibitor: 2.698
[2]; [19]
  Fold Change AOS Allergen vs. cPLA2 inhibitor: 2.609
[2]; [20]
  Fold Change AOS Allergen vs. cPLA2 inhibitor: −1.245
[2]; gene SN, probeset 219519_s_at
  Fold Change AOS Allergen vs. cPLA2 inhibitor: 4.378
[2]; [21]
  Fold Change AOS Allergen vs. cPLA2 inhibitor: −1.358
[2]; [22]
  Fold Change AOS Allergen vs. cPLA2 inhibitor: −1.203
[2]; [23]
  Fold Change AOS Allergen vs. cPLA2 inhibitor: −1.167
